The values that follow come from US11116735B2, “Use of substituted benzylideneguanidine derivatives as synergists for polymyxin antibiotics” (GUANGZHOU INSIGHTER BIOTECHNOLOGY CO., LTD., priority 2015, dated 2021).

The test system of one assay is E. coli 3B-24. The assay can be described thus: MIC by doubling dilution, colistin sulfate-susceptible E. coli 3B-24. It is filed as cell-based, Escherichia coli.
The test system of a further assay is weanling piglets. The assay can be described thus: Compound 3 in various dosages and colistin sulfate in the feed for weanling piglets. It is filed as in vivo, Duroc×Landrace×Large crossbred lean weanling piglets. Particulars: for Average daily weight gain / Diarrhea rate / Feed conversion ratio: ten days. On the procedure:
90 28-day-aged Duroc×Landrace×Large crossbred lean weanling piglets similar in weight were divided into 9 groups, 10 piglets in each group. For each group, colistin sulfate and/or various dosages of compound 3 were added into the antibiotic-free creep feed. The piglets were given ad libitum access to feed and water during the experiment. Weight gain, feed efficiency and diarrhea rate of each group within ten days were recorded.

Where [1] appears, read: 20 ppm colistin sulfate + 10 ppm compound 3 in creep feed (Test 1).
[2] abbreviates: 20 ppm colistin sulfate + 25 ppm compound 3 in creep feed (Test 2).
Where [3] appears, read: 20 ppm colistin sulfate + 50 ppm compound 3 in creep feed (Test 3).
[4] abbreviates: 20 ppm colistin sulfate + 100 ppm compound 3 in creep feed (Test 4).
Where [5] appears, read: 20 ppm colistin sulfate + 200 ppm compound 3 in creep feed (Test 5).
Where [6] appears, read: 20 ppm colistin sulfate + 500 ppm compound 3 in creep feed (Test 6).
Where [7] appears, read: only 200 ppm compound 3 in creep feed, no colistin sulfate.

Consider `CC(C)Oc1ccc(C=NN=C(N)NN=Cc2ccc(OC(C)C)cc2)cc1` [Compound 3], for which the “In vitro minimum inhibitory concentration (MIC) of the substance alone” value in the assay on E. coli 3B-24 (E. coli 3B-24, colistin sulfate-susceptible, substance alone, derivatives as hydrochlorides) is recorded as more than 800 ppm. The “In vitro MIC of colistin sulfate in the presence of the substituted benzylideneguanidine derivative” value with E. coli 3B-24 (E. coli 3B-24, culture comprised 20.0 ppm of the derivative (hydrochloride), colistin sulfate serially diluted) is 0.50 ppm. The “Average daily weight gain” value is 215 g in the assay on weanling piglets (setting [1]); 226 g with weanling piglets (setting [2]); 237 g with weanling piglets (setting [3]); 248 g in the assay on weanling piglets (setting [4]); 255 g with weanling piglets (setting [5]); 259 g with weanling piglets (setting [6]). Further, in the assay with weanling piglets (setting [7]), the “Average daily weight gain” value turned out to be 228 g. Further, the Diarrhea rate with weanling piglets (setting [1]) turned out to be 30%; with weanling piglets (setting [2]) it was 26%; in the assay with weanling piglets (setting [3]) it was 20%; with weanling piglets (setting [4]), 16%; in the assay with weanling piglets (setting [5]), 6%; with weanling piglets (setting [6]), 3%. In addition, the Diarrhea rate with weanling piglets (setting [7]) came to 29%. Further, the Feed conversion ratio with weanling piglets (setting [1]) is recorded as 1.632; in the assay with weanling piglets (setting [2]), 1.578; in the assay with weanling piglets (setting [3]), 1.532; in the assay on weanling piglets (setting [4]) it was 1.499; in the assay with weanling piglets (setting [5]), 1.417; with weanling piglets (setting [6]), 1.428. In the assay with weanling piglets (setting [7]), the Feed conversion ratio is 1.596. In the assay on weanling piglets (colistin sulfate added together with compound 3, weanling piglets), the “Dosage dependence of diarrhea rate and productivity” value is on record as “a higher dosage of compound 3 led to a better effect”.
